In ChEMBL document CHEMBL1201862, “PubChem BioAssay data set” (2004):
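How tested: cells in 96-well plates exposed to compound for 48 hours at five concentrations. Here, GI50 denotes the concentration required for 50% inhibition of growth.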 The source made the active and inactive calls. No stated cut-off is given here; in the data, active = GI50 up to about 1.1 µM and inactive = higher.

Experiments:
Assay in all cases: NCI-60 cell line screen, 48 h
[1] = test system: MDA-N
[2] = test system: DLD-1
[3] = test system: DMS-273
[4] = test system: SNB-78
[5] = test system: M19-MEL
[6] = test system: KM-20L2
[7] = test system: RXF 631
[8] = test system: HOP-18
[9] = test system: XF498

SMILES	GI50 [1]	GI50 [2]	GI50 [5]	GI50 [6]	also measured
S=C(Nc1ccc2c(c1)Cc1ccccc1-2)Nc1ccc2c(c1)Cc1ccccc1-2	> 100 µM (inactive)	–	–	–	–
c1ccc(CCCNc2nnnc3ccccc23)cc1	69 µM (inactive)	–	–	–	–
O=C(O)C(Cc1ccccc1-c1ccccc1)C(=O)O	> 100 µM (inactive)	–	–	–	–
O=C1C=CC2(O[C@H](c3ccccc3)[C@@H](c3ccccc3)O2)[C@H](Sc2ccccc2O)C1	0.316 µM (active)	–	–	–	–
COc1ccc(C(=O)NCCN(C)C)c2nc3ccccc3cc12	1.46 µM (inactive)	–	–	–	–
COc1ccc(OC)c2nc3c(C(=O)NCCN(C)C)cccc3nc12	4.52 µM (inactive)	–	–	–	–
O=C1OC(c2ccccc2)=N/C1=C/NC(CS)C(=O)O (stereo not given)	–	> 100 µM (inactive)	> 100 µM (inactive)	> 100 µM (inactive)	GI50 [3]: > 100 µM (inactive); GI50 [4]: > 100 µM (inactive)
O=[N+]([O-])c1ccc(/C(Cl)=C/c2ccc(/C=C(\Cl)c3ccc([N+](=O)[O-])cc3[N+](=O)[O-])cc2)c([N+](=O)[O-])c1	–	> 100 µM (inactive)	> 100 µM (inactive)	0.188 µM (active)	GI50 [3]: > 100 µM (inactive); GI50 [4]: > 100 µM (inactive); GI50 [7]: > 100 µM (inactive)
C(#C[C@@]12CCC[C@@H]1N(Cc1ccccc1)CO2)c1ccc2c(c1)OCO2	> 100 µM (inactive)	–	–	–	–
COC(=O)C1=C(OC(=O)/C(=C/c2ccc(Cl)cc2)c2ccc(Cl)cc2)C(C(=O)OC)[C@@]2(O)[C@@H](C(=O)OC)[C@H](C)C[C@@H]1[C@@H]2C(=O)OC (stereo not given in full)	> 100 µM (inactive)	–	–	–	–
N#Cc1c(N2CCCC2)nsc1Nc1ccccc1	> 100 µM (inactive)	–	–	–	–
Cc1ccccc1NC(=O)c1ccc([N+](=O)[O-])cc1	–	> 100 µM (inactive)	> 100 µM (inactive)	> 100 µM (inactive)	GI50 [8]: > 100 µM (inactive); GI50 [3]: 80.5 µM (inactive); GI50 [4]: > 100 µM (inactive); GI50 [9]: > 100 µM (inactive)
COc1cc(Nc2nc3cc(C(F)(F)F)ccc3nc2C)cc(OC)c1OC	–	7.1 µM (inactive)	–	–	GI50 [8]: < 0.01 µM (active); GI50 [3]: 5.2 µM (inactive); GI50 [4]: 11.1 µM (inactive); GI50 [9]: 2.3 µM (inactive)
C=C(C)COC(=O)COCC(=O)OCC(=C)C	> 100 µM (inactive)	–	–	–	–
CCN(CC)c1ccc2cc(-c3csc(-c4ccc(N(C)C)cc4)n3)c(=O)oc2c1	> 100 µM (inactive)	–	–	–	–
COC(=O)C(CCSC)NC(=O)Cc1ccc(C(=O)c2ccccc2)cc1 (stereo not given)	14.9 µM (inactive)	–	–	–	–
CC[C@@]1(OC(=O)C(N)CCC(=O)O)C(=O)OCc2c1cc1n(c2=O)Cc2cc3ccccc3nc2-1 (stereo not given in full)	0.314 µM (active)	1.48 µM (inactive)	0.189 µM (active)	0.474 µM (active)	GI50 [8]: 0.217 µM (active); GI50 [3]: 0.0183 µM (active); GI50 [4]: 1.82 µM (inactive); GI50 [9]: 0.197 µM (active)
O=C(CC(=O)Nc1ccccc1)NNC(c1cc(/N=N/c2ccc(Br)cc2)ccc1O)P(O)O (stereo not given)	3.83 µM (inactive)	–	–	–	–
COC1(C(C)(C)C)C=C(C(C)(C)C)P(=O)(O)O1 (stereo not given)	> 100 µM (inactive)	–	–	–	–
COC(=O)/C(=C\c1ccco1)P(=O)(OC)OC	56.1 µM (inactive)	–	–	–	–
O=C(Cn1c(=O)oc2ccc(C(=O)c3ccc(F)cc3)cc21)c1ccccc1	> 100 µM (inactive)	–	–	–	–

SMILES	GI50 [1]	GI50 [2]	GI50 [5]	GI50 [6]	also measured
CN(Cc1c[n+]([O-])c2nc(N)nc(N)c2n1)c1ccc(C(=O)NC23CC4CC(CC(C4)C2)C3)cc1	70.6 µM (inactive)	–	–	–	–
O=C1C(c2ccccc2)=C(O)c2cccc3cccc1c23	–	–	> 100 µM (inactive)	> 100 µM (inactive)	GI50 [8]: 33.6 µM (inactive); GI50 [3]: > 100 µM (inactive); GI50 [4]: > 100 µM (inactive); GI50 [9]: > 100 µM (inactive)
O=C(NC1C(=O)NNC1c1ccccc1Cl)c1ccccc1 (stereo not given)	–	> 100 µM (inactive)	> 100 µM (inactive)	> 100 µM (inactive)	GI50 [8]: > 100 µM (inactive); GI50 [3]: > 100 µM (inactive); GI50 [9]: > 100 µM (inactive)
O=C1C(=O)N(C(=O)c2ccc(Cl)c(Cl)c2)c2ccc(Cl)cc21	–	73.5 µM (inactive)	18.8 µM (inactive)	–	GI50 [8]: > 100 µM (inactive); GI50 [3]: > 100 µM (inactive); GI50 [4]: > 100 µM (inactive)
O=c1c(F)cn(Cc2c(Cl)cccc2Cl)c(=O)n1Cc1c(Cl)cccc1Cl	> 31.6 µM (inactive)	–	–	–	–
CCN(CC)CC1CCCCN1CC(=O)N1CC(C)C(=O)Nc2ccccc21 (stereo not given)	–	> 100 µM (inactive)	> 100 µM (inactive)	> 100 µM (inactive)	GI50 [8]: > 100 µM (inactive); GI50 [3]: > 100 µM (inactive)
C1CCN2CC3CCCN4CCCC(C2C1)C34 (stereo not given)	> 100 µM (inactive)	–	–	–	–
O=c1nc(N2CCN(c3ccccc3)CC2)ccn1C1OC(CO)C(O)C1O (stereo not given)	56.8 µM (inactive)	–	–	–	–
CN(C)C(=S)/N=c1\ss/c(=N\C(=S)N(C)C)n1C1CCCCC1	–	–	0.524 µM (active)	> 100 µM (inactive)	GI50 [4]: 49.4 µM (inactive)
CC1(C)O[C@H](C(=O)O)[C@@H](C(=O)O)O1	> 100 µM (inactive)	–	–	–	–
COC(=O)c1c(C)cc2c(c1O)C1(O)C(=O)c3cc4c(c(O)c3C(=O)C1(OC)C(O)C2)C(=O)C=C(NC1OC(C)C(OC)C(O)C1OC)C4=O (stereo not given)	–	0.0199 µM (active)	0.0196 µM (active)	0.104 µM (active)	GI50 [3]: 0.103 µM (active); GI50 [4]: 0.0521 µM (active); GI50 [9]: 0.114 µM (active)
O=C(c1ccco1)N(C(=S)N1CCN(c2ccccc2)CC1)C1CCCCC1	–	85.1 µM (inactive)	> 100 µM (inactive)	90.4 µM (inactive)	GI50 [8]: > 100 µM (inactive); GI50 [3]: 59.4 µM (inactive); GI50 [4]: > 100 µM (inactive)
O=C(Cc1ccc(Cl)c(Cl)c1)NCC1(N2CCCCC2)CCCCC1	37 µM (inactive)	–	–	–	–
C1CSC2=C(S1)SC1=C(S2)SC(=C2SC3=C(SC4=C(SCCS4)S3)S2)S1	> 100 µM (inactive)	–	–	–	–
COc1ccc(/C=C/C(=O)c2cc(C(=O)O)c(OC)cc2OC)cc1OC	–	> 100 µM (inactive)	> 100 µM (inactive)	> 100 µM (inactive)	GI50 [8]: > 100 µM (inactive); GI50 [3]: > 100 µM (inactive); GI50 [4]: > 100 µM (inactive)
Cc1ccc(S(=O)(=O)CNC(=O)C(O)(O)C(F)(F)F)cc1	> 100 µM (inactive)	–	–	–	–
NCCCCCCn1c(-c2ccc(Br)cc2)cs/c1=N\c1ccccc1	6.28 µM (inactive)	–	–	–	–
COc1ccc(C(O)c2ccccn2)cc1 (stereo not given)	> 100 µM (inactive)	–	–	–	–
N#CC1(C#N)C2CCCCC23OC(=N)C1(C#N)C(c1ccccc1)O3 (stereo not given)	14 µM (inactive)	–	–	–	–
Clc1ccc(OCC2NC3C=CC32)cn1 (stereo not given)	> 100 µM (inactive)	–	–	–	–
OC(CC1SCCCS1)c1ccccc1 (stereo not given)	–	> 100 µM (inactive)	> 100 µM (inactive)	> 100 µM (inactive)	GI50 [8]: > 100 µM (inactive); GI50 [3]: > 100 µM (inactive); GI50 [9]: > 100 µM (inactive)

SMILES	GI50 [1]	GI50 [2]	GI50 [5]	GI50 [6]	also measured
COC(=O)C1=C(O)C(C(=O)OC)[C@]2(O)[C@H](C(=O)OC)[C@H]1C[C@@H](c1cccc(OC)c1)[C@H]2C(=O)OC (stereo not given in full)	15.6 µM (inactive)	–	–	–	–
Cc1cc(N(CCC#N)CCC#N)ccc1/C=C(\NC(=O)/C=C/c1ccccc1)C(=O)NN	> 100 µM (inactive)	> 100 µM (inactive)	> 100 µM (inactive)	> 100 µM (inactive)	GI50 [3]: > 100 µM (inactive); GI50 [4]: > 100 µM (inactive); GI50 [9]: 25.6 µM (inactive)
CCOC(=O)C1C(=O)CC(O)(OCC)C(C(=O)OCC)C1c1ccc(OC)cc1 (stereo not given)	> 100 µM (inactive)	–	–	–	–
O=[N+]([O-])c1ccc(O)c(/C=N/CC2CCCN3CCCCC23)c1 (stereo not given)	44.8 µM (inactive)	–	–	–	–
CN1CCN(C(=S)N(C(=O)c2ccc(Cl)cc2)C2CCCCC2)CC1	> 100 µM (inactive)	–	–	–	–
CCOC(=O)N/N=C(/N)c1cccc([N+](=O)[O-])c1	> 100 µM (inactive)	–	–	–	–
[N-]=[N+]=NC1(Cc2ccccc2)C(=O)Nc2ccccc2C1=O (stereo not given)	–	> 100 µM (inactive)	> 100 µM (inactive)	> 100 µM (inactive)	GI50 [8]: > 100 µM (inactive); GI50 [3]: > 100 µM (inactive); GI50 [4]: 52.8 µM (inactive); GI50 [9]: > 100 µM (inactive)
COc1ccc2oc(S(=O)(=O)N3CC(CCl)c4ccc([N+](=O)[O-])cc43)cc2c1 (stereo not given)	0.0301 µM (active)	–	–	–	–
O/N=C1/CCCC/C1=C/C=C/c1ccccc1	–	29.6 µM (inactive)	19.7 µM (inactive)	18.5 µM (inactive)	GI50 [8]: 25.8 µM (inactive); GI50 [4]: 25.5 µM (inactive)
C[C@@H](NC(C#N)c1ccco1)c1ccccc1 (stereo not given in full)	> 100 µM (inactive)	–	–	–	–
O=[PH](O)c1cc2ccccc2c2ccccc12	–	> 100 µM (inactive)	> 100 µM (inactive)	> 100 µM (inactive)	GI50 [8]: > 100 µM (inactive); GI50 [3]: > 100 µM (inactive); GI50 [4]: > 100 µM (inactive)
O=S(=O)(O)c1cc(S(=O)(=O)O)c2c(/N=N/c3ccc(S(=O)(=O)O)c4ccccc34)c(O)ccc2c1	> 100 µM (inactive)	–	–	–	–
Cc1ccc(-n2nnc(C(N)=O)c2O)cc1	> 100 µM (inactive)	–	–	–	–
CC(=O)OC(CC1(C)C(C)CCC23COC(=O)C2=CCCC31)c1ccoc1 (stereo not given)	–	26 µM (inactive)	33.8 µM (inactive)	19.3 µM (inactive)	GI50 [4]: 25.4 µM (inactive); GI50 [9]: 20.8 µM (inactive)
N#C/C(=C\c1ccc(O)c(O)c1)C(N)=O	–	48.2 µM (inactive)	78.7 µM (inactive)	50.4 µM (inactive)	GI50 [3]: 57.7 µM (inactive); GI50 [4]: > 100 µM (inactive); GI50 [7]: 56 µM (inactive)
O=C(Oc1ccccn1)c1cc2cc(CCl)ccc2oc1=O	43.5 µM (inactive)	–	–	–	–
CC(=O)O[C@H]1C[C@H](O[C@H]2[C@@H](O)C[C@H](O[C@H]3[C@@H](O)C[C@H](O[C@H]4CC[C@@]5(C)[C@H](CC[C@@H]6[C@@H]5CC[C@]5(O)[C@@H](C7=CC(=O)OC7)CC[C@]65O)C4)O[C@@H]3C)O[C@@H]2C)O[C@H](C)[C@H]1O[C@@H]1O[C@H](CO)[C@@H](O)[C@H](O)[C@H]1O	0.45 µM (active)	–	–	–	–
NNS(=O)(=O)c1cc(C(=O)O)cc(C(=O)O)c1	> 100 µM (inactive)	–	–	–	–
O=C1C=CC(=O)N1c1ccc(I)cc1	15.2 µM (inactive)	–	–	–	–
C#C[C@]1(O)CC[C@H]2[C@@H]3CCc4cc(O)ccc4[C@H]3CC[C@@]21C [ETHINYL ESTRADIOL]	–	12.6 µM (inactive)	17.1 µM (inactive)	16.7 µM (inactive)	GI50 [8]: > 100 µM (inactive); GI50 [3]: > 10 µM (inactive); GI50 [4]: 33.4 µM (inactive); GI50 [9]: 28.7 µM (inactive)
COC[C@H]1OC(=O)c2coc3c2[C@@]1(C)C1=C(C3=O)[C@@H]2CCC(=O)[C@@]2(C)C[C@H]1OC(C)=O [WORTMANNIN]	15.1 µM (inactive)	–	–	–	–
